Data published in patent US5962487A, “Antipicornaviral compounds and methods for their use and preparation” (Agouron Pharmaceuticals, Inc., priority 1997, dated 1999).
pEC50: −log10 of the molar value.

Experiments:
in vitro = assay type: cell-based; conditions: human, mrc5 cells
Method: (§1) The Echovirus strain 11 (ECHO-11) and Enterovirus strain 70 (ENT-70) were purchased from American Type Culture Collection (ATCC). Virus stocks were propagated and antiviral assays were performed in MRC5 cells (ATCC). Cells were grown in Minimal Essential Medium with 10% fetal bovine serum.
(§2) The ability of compounds to protect cells against ECHO-11 or ENT-70 infection was measured by the XTT dye reduction method. Briefly, MRC5 cells were infected with ECHO-11 or ENT-70 at a multiplicity of infection (m.o.i.) of 0.0013 (ECHO-11) and 0.0017 (ENT-70) or mock-infected with medium only. Infected or uninfected cells were resuspended at 2×10^4 cells per mL and incubated with appropriate concentrations of drug. One day later, XTT/PMS was added to test plates, and the amount of formazan produced was quantified spectrophotometrically at 450/650 nm. The EC50 was calculated as the concentration of drug that increased the percentage of formazan production in drug-treated, virus-infected cells to 50% of that produced by drug-free, uninfected cells. The 50% cytotoxic dose (CC50) was calculated as the concentration of drug that decreased the percentage of formazan produced in drug-treated, uninfected cells to 50% of that produced in drug-free, uninfected cells. The therapeutic index (TI) was calculated by dividing the CC50 by the EC50.

MRC5 cells = assay: in vitro; assay type: cell-based
Method: as §1, §2

CVB-3 = assay: Anticoxsackieviral HI-HeLa Cell Culture Assay, CVB-3; assay type: cell-based, Coxsackie strain B-3
Method: as §2, with “CVA-21” for “ECHO-11”, “CVB-3” for “ENT-70”, “HI-HeLa” for “MRC5”, “0.05 (CVA-21)” for “0.0013 (ECHO-11)”, “0.08 (CVB-3)” for “0.0017 (ENT-70)”, “4×10^4” for “2×10^4”
The Coxsackie strains A-21 (CVA-21) and B-3 (CVB-3) were purchased from American Type Culture Collection (ATCC). Virus stocks were propagated and antiviral assays were performed in HI-HeLa cells (ATCC). Cells were grown in Minimal Essential Medium with 10% fetal bovine serum.

[1] = biological target: T1, Rhinovirus 3C protease (RVP) serotype 2 (Human rhinovirus 2, UniProt P04936); assay: Inhibition of Rhinovirus Protease, serotype 2 (FRET assay); assay type: biochemical; conditions: enzyme start experiments, read-out: kobs/I
T1 construct: Recombinant Rhinovirus 3C proteases from serotypes 14, 16, 2 or 89 were prepared; made in house
T1 sequence (P04936 1508-1690): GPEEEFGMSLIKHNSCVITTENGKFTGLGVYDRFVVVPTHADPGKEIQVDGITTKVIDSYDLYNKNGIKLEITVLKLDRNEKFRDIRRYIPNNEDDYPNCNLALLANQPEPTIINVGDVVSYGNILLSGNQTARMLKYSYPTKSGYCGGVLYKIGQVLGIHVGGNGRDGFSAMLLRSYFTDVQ
Method: Stock solutions (50 mM, in DMSO) of various compounds were prepared; dilutions were in the same solvent. Recombinant Rhinovirus 3C proteases from serotypes 14, 16, 2 or 89 were prepared by the following standard chromatographic procedures: (1) ion exchange using Q Sepharose Fast Flow from Pharmacia; (2) affinity chromatography using Affi-Gel Blue from Biorad; and (3) sizing using Sephadex G-100 from Pharmacia. Assays contained 2% DMSO, 50 mM tris pH 7.6, 1 mM EDTA, a compound at the indicated concentrations, approximately 1 μM substrate, and 50-100 nM protease. For Ki determinations, the compound and the enzyme were preincubated for 10 minutes at 30° C. prior to addition of the substrate (substrate start). The kobs/I values were obtained from reactions initiated by addition of enzyme rather than substrate. RVP activity is measured in the fluorescence resonance energy transfer assay. The substrate was (N-terminal) DABCYL-(Gly-Arg-Ala-Val-Phe-Gln-Gly-Pro-Val-Gly)-EDANS. In the uncleaved peptide, the EDANS fluorescence was quenched by the proximal DABCYL moiety. When the peptide was cleaved, the quenching was relieved, and activity was measured as an increase in fluorescence signal.
In the above table, all data is for RVP serotype-14 unless otherwise noted in parentheses. All strains of human rhinovirus (HRV) were purchased from American Type Culture Collection (ATCC), except for serotype 14, which was produced from the infectious cDNA clone constructed and supplied to us by Dr. Roland Rueckert at the Institute for Molecular Virology, University of Wisconsin, Madison, Wis. The column designated INHIB represents the percent inhibition, with the concentration of the compound in μM indicated in parentheses, unless Ki was assigned as designated by (Ki), at 10 minute preincubation with 50 nM RVP prior to addition of substrate was used. The data in the column designated kobs/I was measured from progress curves in enzyme start experiments.

SMILES: CCOC(=O)/C=C/[C@H](CCC(N)=O)NC(=O)[C@H](Cc1ccccc1)N(C)C(=O)[C@H](CC(C)C)NC(=O)OCc1ccccc1 [Compound 2, Ethyl-3-(CBZ-L-Leu-L-N-Me-Phe-L-Gln)-E-Propenoate]
- CC50 at 24 h (in vitro): 56 µM
- CC50 (MRC5 cells): 56 µM
- pEC50 (CVB-3; 24 h, CVB-3 infection of Hi-HeLa cells, XTT, one day): 5.70
- TI (CVB-3; CC50/EC50, CVB-3): 28
- kinact/KI [1]: 617 M⁻¹ s⁻¹
